The record followed here is patent US20260374773A1, “MULTI-CYCLIC IRAK AND FLT3 INHIBITING COMPOUNDS AND USES THEREOF” (CHILDREN'S HOSPITAL MEDICAL CENTER, priority 2022, published 2026).

Where only a bound is given, the exact number is not on record here.

One experiment deals with T1, FLT3 D835H (Homo sapiens, UniProt P36888, D835H).
T1 sequence (P36888 27-993 D835H): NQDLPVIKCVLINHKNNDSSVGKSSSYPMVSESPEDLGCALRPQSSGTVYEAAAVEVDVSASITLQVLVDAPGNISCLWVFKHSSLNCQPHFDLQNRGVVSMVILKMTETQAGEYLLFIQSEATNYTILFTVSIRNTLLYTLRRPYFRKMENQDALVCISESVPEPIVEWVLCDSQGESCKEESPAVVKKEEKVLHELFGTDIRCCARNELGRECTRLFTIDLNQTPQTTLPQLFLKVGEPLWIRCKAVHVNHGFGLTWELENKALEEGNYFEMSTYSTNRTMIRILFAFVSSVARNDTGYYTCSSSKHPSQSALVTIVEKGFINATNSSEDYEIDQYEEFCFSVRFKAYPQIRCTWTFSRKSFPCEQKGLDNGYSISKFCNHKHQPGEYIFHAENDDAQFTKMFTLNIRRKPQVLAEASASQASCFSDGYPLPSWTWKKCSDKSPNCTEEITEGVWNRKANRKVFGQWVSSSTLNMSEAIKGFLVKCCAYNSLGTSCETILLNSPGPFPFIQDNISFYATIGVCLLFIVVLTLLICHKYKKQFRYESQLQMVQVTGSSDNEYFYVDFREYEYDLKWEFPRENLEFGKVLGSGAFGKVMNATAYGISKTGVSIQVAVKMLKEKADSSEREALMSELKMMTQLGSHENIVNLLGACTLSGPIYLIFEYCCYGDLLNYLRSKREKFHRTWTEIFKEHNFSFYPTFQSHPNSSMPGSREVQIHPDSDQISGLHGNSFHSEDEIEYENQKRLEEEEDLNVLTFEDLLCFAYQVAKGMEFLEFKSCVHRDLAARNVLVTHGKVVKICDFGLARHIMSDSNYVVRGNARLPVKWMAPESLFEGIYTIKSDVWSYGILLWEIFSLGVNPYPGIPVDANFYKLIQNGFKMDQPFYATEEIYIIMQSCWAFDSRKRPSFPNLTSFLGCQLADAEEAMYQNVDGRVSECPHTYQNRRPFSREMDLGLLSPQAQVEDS
Description: DiscoverX KINOMEscan active site-directed competition binding, FLT3 D835H. To be noted: Table 12; no ATP.
From the text: (§1) Kinase binding data were obtained for various exemplary compounds prepared according to Examples 1-8 using the DiscoverX KINOMEscan® active site-directed competition binding site-directed assay protocol described below. […] As a result, the data report thermodynamic interaction affinities (Kd values), rather than IC50 values that are dependent on ATP concentrations. The assay uses a DNA-tagged version of the protein kinase, and an immobilized ligand bound to a solid support. Compounds that directly or indirectly prevent kinase binding to the immobilized ligand reduce the amount of kinase captured on the solid support, which is detected using an ultra-sensitive qPCR method. Affinity constants reported from the assay have been reported to be independent of the immobilized ligand used that is coupled to the solid support (See supplemental information in Fabian, M. A. et. al., (2005) Nat. Biotechnol. 23, 329-336; Wodicka, L. M. et. al., (2010) Chem. Biol. 17, 1241-1249.)
Kinase-tagged T7 phage strains were prepared in an E. coli host derived from the BL21 strain. E. coli were grown to log-phase and infected with T7 phage and incubated with shaking at 32 °C until lysis. The lysates were centrifuged and filtered to remove cell debris. The remaining kinases were produced in HEK-293 cells and subsequently tagged with DNA for qPCR detection. Streptavidin-coated magnetic beads were treated with biotinylated small molecule ligands for 30 minutes at room temperature to generate affinity resins for kinase assays. The liganded beads were blocked with excess biotin and washed with blocking buffer (SeaBlock (Pierce), 1% BSA, 0.05% Tween 20, 1 mM DTT) to remove unbound ligand and to reduce non-specific binding. […] Test compounds were prepared as 111x stocks in 100% DMSO. Kds were determined using an 11-point 3-fold compound dilution series with three DMSO control points. All compounds for Kd measurements are distributed by acoustic transfer (non-contact dispensing) in 100% DMSO. The compounds were then diluted directly into the assays such that the final concentration of DMSO was 0.9%. All reactions were performed in polypropylene 384-well plates. Each was a final volume of 0.02 mL. The assay plates were incubated at room temperature with shaking for 1 hour and the affinity beads were washed with wash buffer (1×PBS, 0.05% Tween 20). The beads were then re-suspended in elution buffer (1×PBS, 0.05% Tween 20, 0.5 μM nonbiotinylated affinity ligand) and incubated at room temperature with shaking for 30 minutes. The kinase concentration in the eluates was measured by qPCR. Binding constants (Kds) were calculated with a standard dose-response curve using the Hill equation. The Hill Slope was set to −1. Curves were fitted using a non-linear least square fit with the Levenberg-Marquardt algorithm.
as §1, with “9-12” for “1-8”
Kinase-tagged T7 phage strains were prepared in an E. coli host derived from the BL21 strain. […]
As to `COc1cn2ncc(-c3nc(N[C@H]4CNCC[C@@H]4F)c(C#N)cc3F)c2nc1C1CC1` [Compound 7, 6-(5-cyclopropyl-6-methoxypyrazolo[1,5-a]pyrimidin-3-yl)-5-fluoro-2-(((3S,4S)-4-fluoropiperidin-3-yl)amino)nicotinonitrile], the Kd (in general, the constant that tells how readily two partners part at equilibrium) was 0.18 nM.

In turn, `COc1cn2ncc(-c3nc(N[C@H]4CNCC[C@@H]4F)c(C#N)cc3F)c2nc1C(C)(C)O` [Compound 10, 5-fluoro-2-(((3S,4S)-4-fluoropiperidin-3-yl)amino)-6-(5-(2-hydroxypropan-2-yl)-6-methoxypyrazolo[1,5-a]pyrimidin-3-yl)nicotinonitrile] registered a dissociation constant (Kd) of 0.2 nM.

With `COc1cn2ncc(-c3nc(N[C@H]4CNCC[C@@H]4F)c(F)cc3F)c2nc1C(C)(C)O` [Compound 13, 2-(3-(3,5-difluoro-6-(((3S,4S)-4-fluoropiperidin-3-yl)amino)pyridin-2-yl)-6-methoxypyrazolo[1,5-a]pyrimidin-5-yl)propan-2-ol], the Kd is less than 0.17 nM.

Staying with this experiment, now noted: Table 18; no ATP.
`COc1cn2ncc(-c3nc(N[C@H]4CNCC[C@@H]4F)ncc3F)c2nc1C(C)(C)O` [Compound 6a, 2-(3-(5-fluoro-2-(((3S,4S)-4-fluoropiperidin-3-yl)amino)pyrimidin-4-yl)-6-methoxypyrazolo[1,5-a]pyrimidin-5-yl)propan-2-ol] yielded a Kd of 0.25 nM.

As to `COc1cn2ncc(-c3ccnc(N[C@H]4CNCC[C@@H]4F)n3)c2nc1C1CC1` [Compound 7a, 4-(5-cyclopropyl-6-methoxypyrazolo[1,5-a]pyrimidin-3-yl)-N-((3S,4S)-4-fluoropiperidin-3-yl)pyrimidin-2-amine], the affinity, expressed as Kd, was 1.2 nM.

`COc1cn2ncc(-c3cncc(N[C@H]4CNCC[C@@H]4F)n3)c2nc1C1CC1` [Compound 12a, 6-(5-cyclopropyl-6-methoxypyrazolo[1,5-a]pyrimidin-3-yl)-N-((3S,4S)-4-fluoropiperidin-3-yl)pyrazin-2-amine] gave an equilibrium dissociation constant (Kd) of 0.54 nM.

For the compound `COc1cn2ncc(-c3nc(N[C@@H]4CCCNC4)ncc3F)c2nc1C1CC1` [Compound 14a, (R)-4-(5-cyclopropyl-6-methoxypyrazolo[1,5-a]pyrimidin-3-yl)-5-fluoro-N-(piperidin-3-yl)pyrimidin-2-amine], binding was put at a Kd of 0.2 nM.

`COc1cn2ncc(-c3nc(N[C@H]4CNCC[C@@H]4F)ncc3F)c2nc1C1CC1` [Compound 15a, 4-(5-cyclopropyl-6-methoxypyrazolo[1,5-a]pyrimidin-3-yl)-5-fluoro-N-((3S,4S)-4-fluoropiperidin-3-yl)pyrimidin-2-amine] registered a dissociation constant (Kd) of 0.37 nM.
